# Data published in paper PMC7529893, “Structural basis for substrate recognition and chemical inhibition of oncogenic MAGE ubiquitin ligases” (Nature Communications, 2020).
# Biological target: T1, MAGE-A11:PCF11 interaction (GST-MAGE-A11 and FAM-PCF11_4) (Homo sapiens, UniProt P43364)
# T1 construct: GST-MAGE-A11 MHD (human MAGE-A11 MHD amino acid 218-429); made in house; host or cells: E. coli BL21(DE3)
# T1 sequence (P43364 218-429): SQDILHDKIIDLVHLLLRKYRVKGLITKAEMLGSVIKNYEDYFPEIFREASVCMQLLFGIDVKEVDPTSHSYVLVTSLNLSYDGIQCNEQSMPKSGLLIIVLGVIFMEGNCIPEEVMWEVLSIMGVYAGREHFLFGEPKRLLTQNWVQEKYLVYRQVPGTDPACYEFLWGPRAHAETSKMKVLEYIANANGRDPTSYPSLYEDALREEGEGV
# Assay: TR-FRET primary / single point screen at 15 µM
# Assay type: binding
# Conditions: single point TR-FRET screening of 797 quinoline compounds against MAGE-A11:PCF11
# How it was run: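 Single-point screen at 15 µM final compound in 50 mM Tris pH 7.5, 20 mM MgCl2, 0.1 mg/ml BSA, 1 mM DTT, with 200 nM FAM-PCF11_4, 5 nM Tb-anti-GST and 5 nM GST-MAGE-A11. After 90 min at room temperature, the 520/490 nm TR-FRET ratio (340 nm excitation) gave %Inhibition against no-MAGE-A11 and DMSO controls.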
row,Compound,percent inhibition (TR-FRET)
1,Clc1ccc2c(NCCCCN(Cc3ccccc3)Cc3ccncc3)ccnc2c1 [SJ000361190],-9.945
2,Cc1ccsc1CN(CCCCNc1ccnc2cc(Cl)ccc12)Cc1ccccc1 [SJ000361191],23.4378
3,FC(F)(F)c1ccccc1CN(CCCCNc1ccnc2cc(Cl)ccc12)Cc1ccccc1 [SJ000361192],27.8155
4,Cc1cc(C)c(CN(CCCCNc2ccnc3cc(Cl)ccc23)Cc2ccccc2)c(C)c1 [SJ000361193],26.0268
5,Clc1ccc2c(NCCCCN(Cc3ccccc3)CC3CCCCC3)ccnc2c1 [SJ000361194],41.9261
6,CCC(CC)CN(CCCCNc1ccnc2cc(Cl)ccc12)Cc1ccccc1 [SJ000361195],25.5382
7,CCCCCN(CCCCNc1ccnc2cc(Cl)ccc12)Cc1ccccc1 [SJ000361196],19.0968
8,Fc1ccc(CN(CCCCNc2ccnc3cc(Cl)ccc23)Cc2ccccc2)cc1F [SJ000361197],26.0931
9,Fc1ccccc1CN(CCCCNc1ccnc2cc(Cl)ccc12)Cc1ccccc1 [SJ000361198],20.7772
10,Fc1cccc(CN(CCCCNc2ccnc3cc(Cl)ccc23)Cc2ccccc2)c1 [SJ000361199],28.3389
11,O=[N+]([O-])c1ccccc1CN(CCCCNc1ccnc2cc(Cl)ccc12)Cc1ccccc1 [SJ000361200],17.2064
12,O=[N+]([O-])c1cccc(CN(CCCCNc2ccnc3cc(Cl)ccc23)Cc2ccccc2)c1 [SJ000361201],24.3707
13,O=[N+]([O-])c1ccc(CN(CCCCNc2ccnc3cc(Cl)ccc23)Cc2ccccc2)cc1 [SJ000361202],15.2459
14,O=C(O)c1ccccc1CN(CCCCNc1ccnc2cc(Cl)ccc12)Cc1ccccc1 [SJ000361203],4.099
15,Clc1ccc2c(NCCCCN(Cc3ccccc3)Cc3cccc4ccccc34)ccnc2c1 [SJ000361204],26.4906
16,Clc1ccc2c(NCCCCN(Cc3ccccc3)Cc3ccc4ccccc4c3)ccnc2c1 [SJ000361205],24.6356
17,Cc1cccc(CN(CCCCNc2ccnc3cc(Cl)ccc23)Cc2ccccc2)c1 [SJ000361206],29.5379
18,Clc1ccc(CN(CCCCNc2ccnc3cc(Cl)ccc23)Cc2ccccc2)c(Cl)c1 [SJ000361207],35.4339
19,CCC(C)CN(CCCCNc1ccnc2cc(Cl)ccc12)Cc1ccccc1 (stereo not drawn) [SJ000361208],35.3677
20,Cc1ccc(C)c(CN(CCCCNc2ccnc3cc(Cl)ccc23)Cc2ccccc2)c1 [SJ000361209],32.6515
21,COc1cccc(CN(CCCCNc2ccnc3cc(Cl)ccc23)Cc2ccccc2)c1 [SJ000361210],11.7175
22,Clc1ccc2c(NCCCCN(CCc3ccccc3)Cc3ccccc3)ccnc2c1 [SJ000361211],23.3769
23,CCCCCCN(CCCCNc1ccnc2cc(Cl)ccc12)Cc1ccccc1 [SJ000361212],23.5778

# Same assay, conditions: single point TR-FRET screening of quinoline compounds against MAGE-A11:PCF11; 15 µM
row,Compound,percent inhibition (TR-FRET)
1,CCCNCCCNc1ccnc2cc(C(F)(F)F)ccc12 [SJ000361123],12.8181
2,CCCCCCNCCCNc1ccnc2cc(C(F)(F)F)ccc12 [SJ000361124],31.6112
3,CSC(C)CCNCCCNc1ccnc2cc(C(F)(F)F)ccc12 (stereo not drawn) [SJ000361125],24.4617
4,Clc1ccc2c(NCCCN(Cc3ccccc3)Cc3ccccc3)ccnc2c1 [SJ000361166],14.7648
5,Oc1ccccc1CN(CCCNc1ccnc2cc(Cl)ccc12)Cc1ccccc1 [SJ000361167],19.2696
6,FC(F)(F)c1ccccc1CN(CCCNc1ccnc2cc(Cl)ccc12)Cc1ccccc1 [SJ000361168],2.509
7,Cc1cc(C)c(CN(CCCNc2ccnc3cc(Cl)ccc23)Cc2ccccc2)c(C)c1 [SJ000361169],31.1941
8,Clc1ccc2c(NCCCN(Cc3ccccc3)Cc3ccoc3)ccnc2c1 [SJ000361170],12.8437
9,Clc1ccc2c(NCCCN(Cc3ccccc3)CC3CCCCC3)ccnc2c1 [SJ000361171],28.213
10,CCC(CC)CN(CCCNc1ccnc2cc(Cl)ccc12)Cc1ccccc1 [SJ000361172],22.9132
11,CCCCCN(CCCNc1ccnc2cc(Cl)ccc12)Cc1ccccc1 [SJ000361173],26.5568
12,Fc1ccc(CN(CCCNc2ccnc3cc(Cl)ccc23)Cc2ccccc2)cc1F [SJ000361174],27.5505
13,Fc1ccccc1CN(CCCNc1ccnc2cc(Cl)ccc12)Cc1ccccc1 [SJ000361175],0.9627
14,Fc1cccc(CN(CCCNc2ccnc3cc(Cl)ccc23)Cc2ccccc2)c1 [SJ000361176],20.3571
15,O=[N+]([O-])c1ccccc1CN(CCCNc1ccnc2cc(Cl)ccc12)Cc1ccccc1 [SJ000361177],16.421
16,O=[N+]([O-])c1cccc(CN(CCCNc2ccnc3cc(Cl)ccc23)Cc2ccccc2)c1 [SJ000361178],17.0172
17,O=[N+]([O-])c1ccc(CN(CCCNc2ccnc3cc(Cl)ccc23)Cc2ccccc2)cc1 [SJ000361179],20.1971
18,O=C(O)c1ccccc1CN(CCCNc1ccnc2cc(Cl)ccc12)Cc1ccccc1 [SJ000361180],9.598
19,Clc1ccc2c(NCCCN(Cc3ccccc3)Cc3cccc4ccccc34)ccnc2c1 [SJ000361181],26.2256
20,Clc1ccc2c(NCCCN(Cc3ccccc3)Cc3ccc4ccccc4c3)ccnc2c1 [SJ000361182],22.052
21,Cc1cccc(CN(CCCNc2ccnc3cc(Cl)ccc23)Cc2ccccc2)c1 [SJ000361183],6.02
22,Clc1ccc(CN(CCCNc2ccnc3cc(Cl)ccc23)Cc2ccccc2)c(Cl)c1 [SJ000361184],25.4969
23,Clc1ccc2c(NCCCN(CCCc3ccccc3)Cc3ccccc3)ccnc2c1 [SJ000361185],6.074
24,CCC(C)CN(CCCNc1ccnc2cc(Cl)ccc12)Cc1ccccc1 (stereo not drawn) [SJ000361186],29.5992
25,Cc1ccc(C)c(CN(CCCNc2ccnc3cc(Cl)ccc23)Cc2ccccc2)c1 [SJ000361187],20.217
26,COc1cccc(CN(CCCNc2ccnc3cc(Cl)ccc23)Cc2ccccc2)c1 [SJ000361188],-9.05
27,CCCCCCN(CCCNc1ccnc2cc(Cl)ccc12)Cc1ccccc1 [SJ000361189],-40.7502
28,CCCN(CCC)CCCNc1ccnc2cc(C(F)(F)F)ccc12 [SJ000361250],15.6779
